Tested on: collagenase from Clostridium histolyticum (EC 3.4.24.3)
Assay: Inhibition of collagenase with fluorophor labeled Gelatin-FL, Collagen I-FL and Collagen IV-FL as substrate
Format: biochemical
Details: substrates collagen I, collagen IV and denatured collagen (gelatin), fluorescence-labeled; incubation 60 min at 37° C.; FIGS. 1A-1C
Description: The following examples have been provided to illustrate various aspects of the inventive subject matter. More particularly, all examples employed commercially available collagenase from Clostridium histolyticum (EC 3.4.24.3; Fluka Chemie AG, Switzerland) and commercially available collagen-I and collagen-IV (Molecular Probes, OR, USA).
Inhibition of collagenase from Clostridium histolyticum was determined using fluorophor labeled Gelatin-FL, Collagen I-FL and Collagen IV-FL as substrate. Negative control was Mg ascorbyl-2-phosphate (MAP), and exemplary boron-containing compounds were AB(F-D) and AB (V-E), which represented two different batches of potassium ascorbato-borates. The assay was performed under standard conditions with incubation and of substrate for 60 min at 37° C. and fluorescence was measured in a standard fluorometer. The results of the inhibition experiments are depicted in FIGS. 1A-1C. With respect to the inhibitors, the first column represents the negative control MAP, while the second and third columns represent exemplary boron-containing compounds AB(F-D) (potassium ascorbato-borate) and AB(V-E) (potassium ascorbato-borate). […] Moreover, additional experiments (data not shown) confirmed the inhibitory character of numerous other boron-containing compounds, and especially boron-containing compounds in which borate is complexed by one or more ligands.

In the case of potassium ascorbato-borate [AB(F-D)], the inhibition of collagenase was “specific inhibitory compounds for collagenase”.

— US20030032602A1, “Methods and compositions for collagen homeostasis” (priority 2001, published 2003)
